Experimental findings from ChEMBL document CHEMBL5131548, “Novel Bis-phosphoglycerate Mutase Modulators for Treating Sickle Cell Disease” (ACS Med Chem Lett, 2022) are described below.

This experiment addresses T1, Bisphosphoglycerate mutase (Homo sapiens, UniProt P07738).
T1 sequence (P07738 whole entry): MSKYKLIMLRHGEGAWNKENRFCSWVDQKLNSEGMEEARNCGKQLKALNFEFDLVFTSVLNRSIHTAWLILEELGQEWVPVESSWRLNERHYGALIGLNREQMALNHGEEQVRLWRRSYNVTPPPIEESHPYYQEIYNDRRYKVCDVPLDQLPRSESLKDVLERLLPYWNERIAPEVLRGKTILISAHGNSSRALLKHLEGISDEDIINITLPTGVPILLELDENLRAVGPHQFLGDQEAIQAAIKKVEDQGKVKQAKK
Nature of the experiment: Inhibition of human Bis-phosphoglycerate mutase using 3-PG, GAP and NAD as substrate preincubated for 30 mins followed by substrate addition and measured after 100 mins in presence of GAPDH by resazurin reagent based fluorescence analysis. On the technique in general: The colour change of resazurin is a common sign of viable cells or microbes.

As usually defined, the IC50 is the concentration that gives 50% inhibition.

With `Cc1nc(COc2ncccn2)sc1-c1csc(-c2cc(F)c(O)c(F)c2F)n1`, the IC50 was found to be 0.159 µM. Consider `Cc1nc(COc2ncccn2)sc1-c1cccc(-c2ccc(-c3noc(=O)[nH]3)cc2)n1`, for which the IC50 is 0.138 µM.

Consider `Cc1nc(COCC(C)(C)O)sc1-c1cccc(-c2cc(F)c3nn[nH]c3c2F)n1`, for which the IC50 stood at 0.019 µM. As to `Cc1cnc(OCc2nc(C)c(-c3cccc(-c4cc(F)c5nn[nH]c5c4F)n3)s2)nc1`, the IC50 turned out to be 0.021 µM.

Consider `Cc1nc(COc2cccnn2)sc1-c1csc(-c2cc(F)c3[nH]nnc3c2)n1`, for which the IC50 was 0.092 µM.
